Data: US4684664A, “Derivatives of β-(4-isocyano-1,2,3,4-diepoxycyclopentyl) acrylic acid” (Kureha Kagaku Kogyo Kabushiki Kaisha, priority 1984, dated 1987)
Converted amounts (≈) assume the structure as drawn.

Key:
Assay type in all cases: cell-based
[1] = tested on: Proteus vulgaris HX-19; assay: Antibacterial activity, agar-dilution MIC, organism No. 21; details: Proteus vulgaris, HX19; Organism No. 21, bouillon-agar; read-out: Minimum Inhibitory Concentration
Description: (§1) Agar-dilution method was used for determination of the antibacterial activity and antifungal activity while using bouillon-agar culture medium, and the minimum inhibitory concentration of the specimen was expressed by μg/ml of the culture medium.

[2] = tested on: Salmonella typhi 901; assay: Antibacterial activity, agar-dilution MIC, organism No. 9; details: Salmonella enterica, TYPHI, read-out: Minimum Inhibitory Concentration
Description: as §1

[3] = tested on: Escherichia coli NIHJ-JC-2; assay: Antibacterial activity, agar-dilution MIC, organism No. 5; details: Escherichia coli, NIHJJC2; Organism No. 5, bouillon-agar; read-out: Minimum Inhibitory Concentration
Description: as §1

[4] = tested on: Staphylococcus aureus Terajima; assay: Antibacterial activity, agar-dilution MIC, organism No. 2; details: Staphylococcus aureus; Organism No. 2, bouillon-agar; read-out: Minimum Inhibitory Concentration
Description: as §1

[5] = tested on: Micrococcus luteus ATCC 9341; assay: Antibacterial activity, agar-dilution MIC, organism No. 25; details: Micrococcus luteus, ATCC9341; Organism No. 25, bouillon-agar; read-out: Minimum Inhibitory Concentration
Description: as §1

[6] = tested on: Enterobacter aerogenes ATCC 13048; assay: Antibacterial activity, agar-dilution MIC, organism No. 23; details: Klebsiella aerogenes, ATCC13048; Organism No. 23, bouillon-agar; read-out: Minimum Inhibitory Concentration
Description: as §1

[7] = tested on: Salmonella enteritidis G 14; assay: Antibacterial activity, agar-dilution MIC, organism No. 12; details: Salmonella enterica, ENTERITIDIS; Organism No. 12, bouillon-agar; read-out: Minimum Inhibitory Concentration
Description: as §1

[8] = tested on: Pseudomonas aeruginosa PAO 1; assay: Antibacterial activity, agar-dilution MIC, organism No. 17; details: Pseudomonas aeruginosa, PAO1; Organism No. 17, bouillon-agar; read-out: Minimum Inhibitory Concentration
Description: as §1

[9] = tested on: Proteus rettgeri IFO 3850; assay: Antibacterial activity, agar-dilution MIC, organism No. 22; details: Providencia rettgeri, IFO3850; Organism No. 22, bouillon-agar; read-out: Minimum Inhibitory Concentration
Description: as §1

[10] = tested on: Streptococcus pyogenes Cook; assay: Antibacterial activity, agar-dilution MIC, organism No. 4; details: Streptococcus pyogenes; Organism No. 4, bouillon-agar; read-out: Minimum Inhibitory Concentration
Description: as §1

[11] = tested on: Pseudomonas aeruginosa IFO 3445; assay: Antibacterial activity, agar-dilution MIC, organism No. 15; details: Pseudomonas aeruginosa, IFO3445; Organism No. 15, bouillon-agar; read-out: Minimum Inhibitory Concentration
Description: as §1

[12] = tested on: Aspergillus niger IFO 6342; assay: Antifungal activity, agar-dilution MIC, organism No. 30; details: Aspergillus niger, IFO6342; Organism No. 30, bouillon-agar; read-out: Minimum Inhibitory Concentration
Description: as §1

[13] = tested on: Mycoplasma pneumoniae IID817; assay: Antimycoplasmal activity, MIC by phenol red colour change, organism No. 28; details: Mycoplasma, IID817; Organism No. 28, PPLO broth + 1% glucose, 37° C.; read-out: Minimum Inhibitory Concentration (MIC)
Method: Mycoplasma pneumoniae IID817 was used as the test microorganism in a culture medium prepared by adding 1% of glucose to "PPLO broth (manufactured by Difco Co.) liquid culture medium" at 37° C. with phenol red as an indicator, thereby culturing the test microorganism.

[14] = tested on: Salmonella typhimurium IID 971; assay: Antibacterial activity, agar-dilution MIC, organism No. 8; details: Salmonella enterica; Organism No. 8, bouillon-agar; read-out: Minimum Inhibitory Concentration
Description: as §1

[15] = tested on: Proteus vulgaris OX-19; assay: Antibacterial activity, agar-dilution MIC, organism No. 20; details: Proteus vulgaris, OX19; Organism No. 20, bouillon-agar; read-out: Minimum Inhibitory Concentration
Description: as §1

[16] = tested on: Salmonella paratyphi-A 1015; assay: Antibacterial activity, agar-dilution MIC, organism No. 10; details: Salmonella enterica, PARATYPHI, read-out: Minimum Inhibitory Concentration
Description: as §1

[17] = tested on: Bacillus subtilis ATCC 6633; assay: Antibacterial activity, agar-dilution MIC, organism No. 14; details: Bacillus subtilis, ATCC6633; Organism No. 14, bouillon-agar; read-out: Minimum Inhibitory Concentration
Description: as §1

[18] = tested on: Staphylococcus aureus MS 353; assay: Antibacterial activity, agar-dilution MIC, organism No. 3; details: Staphylococcus aureus, MS353; Organism No. 3, bouillon-agar; read-out: Minimum Inhibitory Concentration
Description: as §1

[19] = tested on: Pseudomonas aeruginosa NCTC 10490; assay: Antibacterial activity, agar-dilution MIC, organism No. 16; details: Pseudomonas aeruginosa, NCTC10490; Organism No. 16, bouillon-agar; read-out: Minimum Inhibitory Concentration
Description: as §1

[20] = tested on: Proteus morganii IFO 3848; assay: Antibacterial activity, agar-dilution MIC, organism No. 18; details: Morganella morganii, IFO3848; Organism No. 18, bouillon-agar; read-out: Minimum Inhibitory Concentration
Description: as §1

[21] = tested on: Salmonella shottmuelleri 8006; assay: Antibacterial activity, agar-dilution MIC, organism No. 11; details: Salmonella, 8006; Organism No. 11, bouillon-agar; read-out: Minimum Inhibitory Concentration
Description: as §1

[22] = tested on: Staphylococcus aureus FDA 209PJc-1; assay: Antibacterial activity, agar-dilution MIC, organism No. 1; details: Staphylococcus aureus, FDA209PJC1; Organism No. 1, bouillon-agar; read-out: Minimum Inhibitory Concentration
Description: as §1

[23] = tested on: Streptococcus pyogenes IFO 3340; assay: Antibacterial activity, agar-dilution MIC, organism No. 26; details: Streptococcus pyogenes, IFO3340; Organism No. 26, bouillon-agar; read-out: Minimum Inhibitory Concentration
Description: as §1

[24] = tested on: Candida albicans IAM 4905; assay: Antifungal activity, agar-dilution MIC, organism No. 29; details: Candida albicans, IAM4905; Organism No. 29, bouillon-agar; read-out: Minimum Inhibitory Concentration
Description: as §1

[25] = tested on: Escherichia coli K12 C600 IAM 1264; assay: Antibacterial activity, agar-dilution MIC, organism No. 6; details: Escherichia coli, IAM1264; Organism No. 6, bouillon-agar; read-out: Minimum Inhibitory Concentration
Description: as §1

[26] = tested on: Proteus mirabilis IFO 3849; assay: Antibacterial activity, agar-dilution MIC, organism No. 19; details: Proteus mirabilis, IFO3849; Organism No. 19, bouillon-agar; read-out: Minimum Inhibitory Concentration
Description: as §1

[27] = tested on: Streptococcus faecium IFO 3826; assay: Antibacterial activity, agar-dilution MIC, organism No. 27; details: Enterococcus faecium, IFO3826; Organism No. 27, bouillon-agar; read-out: Minimum Inhibitory Concentration
Description: as §1

[28] = tested on: Klebsiella pneumoniae PCI-602; assay: Antibacterial activity, agar-dilution MIC, organism No. 7; details: Klebsiella pneumoniae, PCI602; Organism No. 7, bouillon-agar; read-out: Minimum Inhibitory Concentration
Description: as §1

[29] = tested on: Enterobacter cloacae 963; assay: Antibacterial activity, agar-dilution MIC, organism No. 24; details: Enterobacter cloacae, 963; Organism No. 24, bouillon-agar; read-out: Minimum Inhibitory Concentration
Description: as §1

For `[C-]#[N+]C12CC3(/C=C/C(=O)N[C@@H](CC(=O)OC)C(=O)OC)OC3C1O2` (stereo partly drawn) [Compound No. 27], the MIC [1] was 12.5 µg/mL (≈ 37.2 µM), the MIC [2] was 25 µg/mL (≈ 74.3 µM) and the MIC [3] was 100 µg/mL (≈ 297 µM). For the same compound, the MIC [4] was 100 µg/mL (≈ 297 µM), the MIC [5] was 12.5 µg/mL (≈ 37.2 µM) and the MIC [6] was > 200 µg/mL. For the same compound, the MIC [7] was 25 µg/mL (≈ 74.3 µM), the MIC [8] was > 200 µg/mL and the MIC [9] was > 200 µg/mL. For the same compound, the MIC [10] was 50 µg/mL (≈ 149 µM), the MIC [11] was > 200 µg/mL and the MIC [12] was > 100 µg/mL. For the same compound, the MIC [13] was > 100 µg/mL, the MIC [14] was 100 µg/mL (≈ 297 µM) and the MIC [15] was 25 µg/mL (≈ 74.3 µM). For the same compound, the MIC [16] was 25 µg/mL (≈ 74.3 µM), the MIC [17] was 100 µg/mL (≈ 297 µM) and the MIC [18] was 25 µg/mL (≈ 74.3 µM). The MIC [19] was > 200 µg/mL, the MIC [20] was 25 µg/mL (≈ 74.3 µM) and the MIC [21] was 25 µg/mL (≈ 74.3 µM). It also gave an MIC [22] of 25 µg/mL (≈ 74.3 µM), an MIC [23] of 50 µg/mL (≈ 149 µM) and an MIC [24] of 100 µg/mL (≈ 297 µM). The MIC [25] was 50 µg/mL (≈ 149 µM), the MIC [26] was > 200 µg/mL and the MIC [27] was > 200 µg/mL. For the same compound, the MIC [28] was 25 µg/mL (≈ 74.3 µM) and the MIC [29] was > 200 µg/mL.

`[C-]#[N+]C12CC3(/C=C/C(=O)N[C@@H](CCC(=O)OCc4ccccc4)C(=O)OCc4ccccc4)OC3C1O2` (stereo partly drawn) [Compound No. 28] was tested, and the MIC [1] was 25 µg/mL (≈ 49.7 µM), the MIC [2] was > 200 µg/mL and the MIC [3] was > 200 µg/mL. The MIC [4] was 12.5 µg/mL (≈ 24.9 µM), the MIC [5] was < 1.56 µg/mL and the MIC [6] was > 200 µg/mL. The MIC [7] was > 200 µg/mL, the MIC [8] was > 200 µg/mL and the MIC [9] was > 200 µg/mL. The MIC [10] was > 200 µg/mL, the MIC [11] was > 200 µg/mL and the MIC [12] was > 100 µg/mL. For the same compound, the MIC [13] was > 100 µg/mL, the MIC [14] was > 200 µg/mL and the MIC [15] was > 200 µg/mL. The MIC [16] was > 200 µg/mL, the MIC [17] was < 1.56 µg/mL and the MIC [18] was 12.5 µg/mL (≈ 24.9 µM). For the same compound, the MIC [19] was > 200 µg/mL, the MIC [20] was > 200 µg/mL and the MIC [21] was > 200 µg/mL. The MIC [22] was 12.5 µg/mL (≈ 24.9 µM), the MIC [23] was > 200 µg/mL and the MIC [24] was > 100 µg/mL. For the same compound, the MIC [25] was > 200 µg/mL, the MIC [26] was > 200 µg/mL and the MIC [27] was 0.5 µg/mL (≈ 0.995 µM). For the same compound, the MIC [28] was > 200 µg/mL and the MIC [29] was > 200 µg/mL.

For `[C-]#[N+]C12CC3(/C=C/C(=O)N[C@@H](CC(=O)OCc4ccccc4)C(=O)OCc4ccccc4)OC3C1O2` (stereo partly drawn) [Compound No. 29], the MIC [1] was 25 µg/mL (≈ 51.2 µM), the MIC [2] was > 200 µg/mL and the MIC [3] was > 200 µg/mL. For the same compound, the MIC [4] was 6.25 µg/mL (≈ 12.8 µM), the MIC [5] was < 1.56 µg/mL and the MIC [6] was > 200 µg/mL. The MIC [7] was > 200 µg/mL, the MIC [8] was > 200 µg/mL and the MIC [9] was > 200 µg/mL. For the same compound, the MIC [10] was > 200 µg/mL, the MIC [11] was > 200 µg/mL and the MIC [12] was > 100 µg/mL. For the same compound, the MIC [13] was > 100 µg/mL, the MIC [14] was > 200 µg/mL and the MIC [15] was > 200 µg/mL. For the same compound, the MIC [16] was > 200 µg/mL, the MIC [17] was 25 µg/mL (≈ 51.2 µM) and the MIC [18] was 3.13 µg/mL (≈ 6.41 µM). The MIC [19] was > 200 µg/mL, the MIC [20] was > 200 µg/mL and the MIC [21] was > 200 µg/mL. The MIC [22] was < 1.56 µg/mL, the MIC [23] was > 200 µg/mL and the MIC [24] was > 100 µg/mL. For the same compound, the MIC [25] was > 200 µg/mL, the MIC [26] was > 200 µg/mL and the MIC [27] was 6.25 µg/mL (≈ 12.8 µM). For the same compound, the MIC [28] was > 200 µg/mL and the MIC [29] was > 200 µg/mL.
